In patent US20070244103A1, “Novel Compounds Having an Anti-Bacterial Activity” (Morphochem Aktiengesellschaft Fur Kombinatorische Chemie, priority 2004, published 2007):
Blank lines part the entries; values can stand above or below the molecule they belong to.

Experiment: MIC of the examples against various organisms
Format: cell-based
Conditions: against at least two of the above organisms (12-strain panel)
Protocol: The MIC (μg/ml) of the examples against various organisms was determined: A. baumannii ATCC19606, E. cloacae ATCC23355, E. coli ATCC25922, K. pneumoniae ATCC27736, P. mirabilis ATCC29906, P. aeruginosa ATCC27853, S. maltophilia ATCC13637, S. aureus ATCC43300, S. epidermidis ATCC14990, S. haemolyticus ATCC29970, E. faecalis ATCC29212 and E. faecium ATC19434.

MIC: ≤ 2 µg/mL
SMILES: COc1ccc2ncc(Cl)c(C(O)CN3CCCC(CNCc4ccc5c(c4)OCCO5)C3)c2c1 (single isomer, unassigned) [Example 66, 1-(3-Chloro-6-methoxy-quinolin-4-yl)-2-(3-{[(2,3-dihydro-benzo[1,4]dioxin-6-ylmethyl)-amino]-methyl}-piperidin-1-yl)-ethanol]

MIC: ≤ 2 µg/mL
SMILES: COc1ccc2nccc(NC(=O)C3CCCC(CNCc4ccc5c(n4)NC(=O)CS5)C3)c2n1 (stereo not drawn) [Example 17, 3-{[(3-Oxo-3,4-dihydro-2H-pyrido[3,2-b][1,4]thiazin-6-ylmethyl)-amino]-methyl}-cyclohexanecarboxylic acid (6-methoxy-[1,5]-naphthyridin-4-yl)-amide]

MIC: ≤ 2 µg/mL
SMILES: COc1ccc2ncc(Cl)c(C(O)CN3CCOC(CNCc4cc5c(cc4F)SCC(=O)N5)C3)c2c1 (single isomer, unassigned) [Example 75, 6-[({4-[2-(3-Chloro-6-methoxy-quinolin-4-yl)-2-hydroxy-ethyl]-morpholin-2-ylmethyl}-amino)-methyl]-7-fluoro-4H-benzo[1,4]thiazin-3-one]

MIC: ≤ 2 µg/mL
SMILES: COc1cnc2ccc(Cl)c(C(O)CN3CCCC(CNCc4cc5c(cc4F)SCC(=O)N5)C3)c2n1 (stereo not drawn) [Example 98, 6-[({1-[2-(6-Chloro-3-methoxy-quinoxalin-5-yl)-2-hydroxy-ethyl]-piperidin-3-ylmethyl}-amino)-methyl]-7-fluoro-4H-benzo[1,4]thiazin-3-one]

MIC: ≤ 2 µg/mL
SMILES: COc1cnc2cccc(C(O)CN3CCCC(CNCc4ccc5c(c4)NC(=O)CO5)C3)c2n1 (stereo not drawn) [Example 87, 6-[({1-[2-Hydroxy-2-(3-methoxy-quinoxalin-5-yl)-ethyl]-piperidin-3-ylmethyl}-amino)-methyl]-4H-benzo[1,4]oxazin-3-one]

MIC: ≤ 2 µg/mL
SMILES: COc1cnc2ccc(Cl)c(C(O)CN3CCCC(CNCc4ccc5c(c4)NC(=O)CS5)C3)c2n1 (stereo not drawn) [Example 96, 6-[({1-[2-(6-Chloro-3-methoxy-quinoxalin-5-yl)-2-hydroxy-ethyl]-piperidin-3-ylmethyl}-amino)-methyl]-4H-benzo[1,4]thiazin-3-one]

MIC: ≤ 2 µg/mL
SMILES: COc1cnc2ccc(Cl)c(C(O)CN3CCCC(CNCc4ccc5c(c4)NC(=O)CO5)C3)c2n1 (stereo not drawn) [Example 93, 6-[({1-[2-(6-Chloro-3-methoxy-quinoxalin-5-yl)-2-hydroxy-ethyl]-piperidin-3-ylmethyl}-amino)-methyl]-4H-benzo[1,4]oxazin-3-one]

MIC: ≤ 2 µg/mL
SMILES: COc1ccc2ncc(Cl)c(C(O)CN3CCOC(CNC/C=C/c4ccccc4)C3)c2c1 (single isomer, unassigned) [Example 77, 1-(3-Chloro-6-methoxy-quinolin-4-yl)-2-{2-[((E)-3-phenyl-allylamino)-methyl]-morpholin-4-yl}-ethanol]

MIC: ≤ 2 µg/mL
SMILES: COc1cnc2ccc(Cl)c(C(O)CN3CCCC(CNCc4cc5c(cn4)OCCO5)C3)c2n1 (stereo not drawn) [Example 97, 1-(6-Chloro-3-methoxy-quinoxalin-5-yl)-2-(3-{[(2,3-dihydro-[1,4]dioxino[2,3-c]-pyridin-7-ylmethyl)-amino]-methyl}-piperidin-1-yl)-ethanol]

The next lines start with the molecule.

SMILES: COc1cnc2cccc(C(O)CN3C4CCC3CC(NCc3cc5c(cc3F)SCC(=O)N5)C4)c2n1 (stereo not drawn) [Example 84, 7-Fluoro-6-({8-[2-hydroxy-2-(3-methoxy-quinoxalin-5-yl)-ethyl]-8-aza-bicyclo[3.2.1]oct-3-ylamino}-methyl)-4H-benzo[1,4]thiazin-3-one]
MIC: ≤ 2 µg/mL

SMILES: COc1ccc2nccc(C(O)CN3C4CCC3CC(NCc3ccc5nsnc5c3)C4)c2n1 (single isomer, unassigned) [Example 11, 2-{3-[(Benzo[1,2,5]thiadiazol-5-ylmethyl)-amino]-8-aza-bicyclo[3.2.1]oct-8-yl}-1-(6-methoxy-[1,5]-naphthyridin-4-yl)-ethanol]
MIC: ≤ 2 µg/mL

SMILES: COc1ccc2nccc(C(O)CN3C4CCC3CC(NCc3ccc5c(c3)OCO5)C4)c2n1 (single isomer, unassigned) [Example 9, 2-{3-[(Benzo[1,3]dioxol-5-ylmethyl)-amino]-8-aza-bicyclo[3.2.1]oct-8-yl}-1-(6-methoxy-[1,5]-naphthyridin-4-yl)-ethanol]
MIC: ≤ 2 µg/mL

SMILES: COc1ccc2ncc(Cl)c(C(O)CN3C4CCC3CC(NC/C=C/c3ccccc3)C4)c2c1 (single isomer, unassigned) [Example 63, 1-(3-Chloro-6-methoxy-quinolin-4-yl)-2-[3-((E)-3-phenyl-allylamino)-8-aza-bicyclo[3.2.1]oct-8-yl]-ethanol]
MIC: ≤ 2 µg/mL

SMILES: COc1ccc2ncc(Cl)c(C(O)CN3C4CCC3CC(NCc3ccc5c(c3)NC(=O)CS5)C4)c2c1 (single isomer, unassigned) [Example 57, 6-({8-[2-(3-Chloro-6-methoxy-quinolin-4-yl)-2-hydroxy-ethyl]-8-aza-bicyclo[3.2.1]oct-3-ylamino}-methyl)-4H-benzo[1,4]thiazin-3-one]
MIC: ≤ 2 µg/mL

SMILES: COc1ccc2nccc(C(O)CN3CCOC(CNCc4ccc5c(n4)NC(=O)CS5)C3)c2n1 (stereo not drawn) [Example 33, 6-[({4-[2-Hydroxy-2-(6-methoxy-[1,5]naphthyridin-4-yl)-ethyl]-morpholin-2-ylmethyl}amino)-methyl]-4H-pyrido[3,2-b][1,4]thiazin-3-one]
MIC: ≤ 2 µg/mL

SMILES: COc1ccc2ncc(Cl)c(C(O)CN3C4CCC3CC(NCc3ccc5nonc5c3)C4)c2c1 (single isomer, unassigned) [Example 59, 2-{3-[(Benzo[1,2,5]oxadiazol-5-ylmethyl)-amino]-8-aza-bicyclo[3.2.1]oct-8-yl}-1-(3-chloro-6-methoxy-quinolin-4-yl)-ethanol]
MIC: ≤ 2 µg/mL

SMILES: COc1cnc2cccc(C(O)CN3C4CCC3CC(NCc3ccc5c(n3)NC(=O)CS5)C4)c2c1 (single isomer, unassigned) [Example 37, 6-({8-[2-Hydroxy-2-(3-methoxy-quinolin-5-yl)-ethyl]-8-aza-bicyclo[3.2.1]oct-3-ylamino}-methyl)-4H-pyrido[3,2-b][1,4]thiazin-3-one]
MIC: ≤ 2 µg/mL

SMILES: COc1cnc2cccc(C(O)CN3CCCC(CNCc4cc5c(cn4)OCCO5)C3)c2c1 (single isomer, unassigned) [Example 43, 2-(3-{[(2,3-Dihydro-[1,4]dioxino[2,3-c]pyridin-7-ylmethyl)-amino]-methyl}-piperidin-1-yl)-1-(3-methoxy-quinolin-5-yl)-ethanol]
MIC: ≤ 2 µg/mL

SMILES: COc1ccc2nccc(C(O)CN3C4CCC3CC(NCc3ccc5c(c3)OCCO5)C4)c2n1 (single isomer, unassigned) [Example 10, 2-{3-[(2,3-Dihydro-benzo[1,4]dioxin-6-ylmethyl)-amino]-8-aza-bicyclo[3.2.1]oct-8-yl}-1-(6-methoxy-[1,5]-naphthyridin-4-yl)-ethanol]
MIC: ≤ 2 µg/mL

SMILES: COc1cnc2cccc(C(O)CN3C4CCC3CC(NCc3ccc5c(c3)OCCO5)C4)c2n1 (stereo not drawn) [Example 78, 2-{3-[(2,3-Dihydro-benzo[1,4]dioxin-6-ylmethyl)-amino]-8-aza-bicyclo[3.2.1]oct-8-yl}-1-(3-methoxy-quinoxalin-5-yl)-ethanol]
MIC: ≤ 2 µg/mL

SMILES: COc1ccc2ncc(Cl)c(C(O)CN3C4CCC3CC(NCc3ccc5c(c3)OCCO5)C4)c2c1 (single isomer, unassigned) [Example 62, 1-(3-Chloro-6-methoxy-quinolin-4-yl)-2-{3-[(2,3-dihydro-benzo[1,4]dioxin-6-ylmethyl)-amino]-8-aza-bicyclo[3.2.1]oct-8-yl}-ethanol]
MIC: ≤ 2 µg/mL
